Experimental data published in patent US8512757B2, “Micelles for drug delivery” (Agency for Science, Techology and Research, priority 2006, dated 2013).

What was measured:
4T1 cells = assay: Cellular distribution and uptake of DOX by confocal microscopy; assay type: cell-based, mouse; conditions: DOX 10 mg/L, 4 hours
Experimental: Free DOX (10 mg/L) and DOX-loaded micelles (DOX content: 10 mg/L) in RPMI 1640 medium (without folate) were incubated with 4T1 cells for 4 hours before examination. The cells on the cover glass were thoroughly washed three times with PBS and visualized by CLSM (Olympus FV300, Japan). DOX was excited at 532 nm with emission at 595 nm. The laser power was 10%. All the observations were conducted using the same resolution.

[1] = Biodistribution in mice bearing subcutaneous 4T1 breast tumours; assay type: in vivo; conditions: 5 mg/kg DOX
Experimental: Female balb/c (body weight: 19-21 g) were subcutaneously implanted with 4T1 cells (10^7 cells per animal). Tumours were allowed to grow for 2 weeks. Free DOX and DOX-loaded micelles were administrated to the animals by tail vein injection at an equivalent DOX dose of 5 mg/kg. At 10 minutes, 30, minutes, 2 hours and 4 hours, blood samples were taken, and the animals were sacrificed. The liver, lung, heart, spleen, kidney and tumour were removed, and kept at −80° C. for future analysis. The organs were weighted and homogenized. DOX distributed in different organs was extracted using chloroform and isopropanol, and analyzed as described by H. S. Yoo, T. G. Park, J. Control. Rel. 2004, 100, 247. Homogenized tissue was added into an acidic hydrolysis buffer containing 2.0 M HCl solution at 80° C. for 10 minutes. The supernatant was collected, and 0.9 mL of the mixture of chloroform and isopropanol (3:1 in volume) was then added. After vortex-mixing, the organic layer was collected by centrifugation at 16,000 rpm for 15 minutes at room temperature. The solution was dried, and re-dissolved in a mobile phase and analyzed by high performance liquid chromatography (HPLC). The recovery rate was 70%, and corrected by an internal standard. The HPLC system consisted of a Waters 2690 separation module and Waters 2475 multi λ fluorescence detector. […] The DOX peak was detected at an excitation wavelength of 480 nm and an emission wavelength of 580 nm.

[2] = test system: 4T1 mouse breast cancer cells; assay: Cytotoxicity test (MTT); assay type: cell-based; conditions: 4T1 cells, 48 hours, 37° C.
Experimental: 4T1 mouse breast cancer cells were cultured in RPMI 1640 (without folate) supplemented with 10% FBS, 5% penicillin, 2 mM L-glutamine (Sigma), and incubated at 37° C., 5% CO2. The cells were seeded onto 96-well plates at 10,000 cells per well, and incubated for one day. […] The media in the wells were replaced with 100 μL of the pre-prepared samples. The plates were then returned to the incubator and maintained in 5% CO2, at 37° C. for 48 hours. Fresh growth media and 10 μL aliquots of MTT solution were used to replace the mixture in each well after 48 hours. The plates were then returned to the incubator and maintained in 5% CO2, at 37° C., for a further 3 hours. The growth medium and excess MTT in each well were then removed. DMSO (150 μL) was then added to each well to dissolve the internalised purple formazan crystals. An aliquot of 100 μL was taken from each well and transferred to a fresh 96-well plate. Each sample was tested in eight replicates per plate. Three plates were used, making a total of 24 replicates per sample. The plates were then assayed at 550 nm and 690 nm. The absorbance readings of the formazan crystals were taken to be that at 550 nm subtracted by that at 690 nm. The results were expressed as a percentage of the absorbance of the blank control.

[3] = tail vein injection, 4T1 tumour

SMILES: COc1cccc2c1C(=O)c1c(O)c3c(c(O)c1C2=O)C[C@@](O)(C(=O)CO)C[C@@H]3O[C@H]1C[C@H](N)[C@H](O)[C@H](C)O1.Cl [free DOX, Doxorubicin hydrochloride]
- cellular distribution of DOX (4T1 cells): only accumulated in the nucleus
- organ distribution of DOX ([1]; spleen, kidney, heart, liver and lung): accumulating uniformly in the heart, lung and liver
- t1/2 in the blood ([1]; tail vein injection): about 30 minutes
- maximum DOX level in tumour tissue [1, 3]: 2.9 µg/g
- time at which maximum DOX level in tumour was reached [1, 3]: 30 min
- DOX level in tumour tissue at 240 minutes ([1]; tail vein injection, 240 minutes): 1.0 µg/g
- IC50 value of DOX [2]: 3.0 µg/mL
